Data set [1] concerns the target T1, human mGluR4 transiently over-expressed in HEK-293 cells (Homo sapiens, UniProt Q14833).
T1 construct: expressed in transfected cells; host or cells: HEK-293 cells, transient co-transfection by electroporation
The data set can be described thus: Human mGluR4 positive allosteric modulator evaluation using Ca++ functional assay. The data set is classed as cell-based. To be noted: for EC50: HEK-293 cells co-transfected with hmGluR4 and chimeric G protein, EC10 glutamate, intracellular calcium (Fluo4AM), read-out: mean EC50 of agonist/positive allosteric modulator activity on mGluR4. Put shortly: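 Fluo4AM-loaded HEK-293 cells expressing hmGluR4 plus a chimeric G protein were read for intracellular Ca2+ (ex 485, em 525 nm). PAM effect measured as potentiation of EC10 glutamate after a 60 s compound-alone agonist read; EC50 from variable-slope sigmoidal fits of 6–9 doses, duplicates, twice.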
Background: Calcium assays in cells follow changes in intracellular calcium, usually with a dye or a luminescent sensor.

In data set [2] the test system is mice. Nature of the data set: Haloperidol-induced catalepsy model (bar test) in the mouse. The data set is classed as in vivo. Particulars: 30 mg/kg i.p. consecutively with haloperidol 1 mg/kg i.p.; compared with vehicle; FIG. 1. The protocol:
In-Vivo Evaluation in the Haldoperidol-Induced Catalepsy Model in the Mouse
This method, which detects anti-Parkinsonian activity, follows that described by Pires et al. (J Med and Biol Res 38 1867-1872, 2005; Shiozaki et al., Psychopharmacology 147, 90-95, 1999)
Catalepsy was assessed using the bar test in mice submitted to acute intra-peritoneal administration of Haloperidol 1 mg/kg. Mice (male Rj: NMRI mice, weighing 25-30 g at the beginning of the experiment) placed in group of 5 in Plexiglas cages, were injected with Haloperidol (1 mg/kg i.p.). […] The catalepsy response of one mouse was measured as the time the animal maintained an imposed posture with both forelimbs placed on a horizontal 0.9 cm diameter wire bar suspended 4 cm above a platform. The end point of catalepsy was considered to occur when both forelimbs were removed from the bar, the mouse climbed onto the bar or if the animal moved its head in an exploratory manner. A cut-off time of 180 seconds was applied. The degree of catalepsy was scored 45 min after Haloperidol administration and continued at 45 minutes intervals for a total of 270 minutes. Between determinations, the animals were returned to their home cages. The compound of Example 63, administered i.p. consecutively with haloperidol, was evaluated at 30 mg/kg and compared with a vehicle control group. […]

In data set [3] the test system is mice. The data set can be described thus: Marble burying test in the mouse. Particulars: p<0.001. The data set is classed as in vivo. From the text:
In-Vivo Evaluation in the Marble Burying Test in the Mouse
The method, which detects anxiolytic/tranquilizing activity, follows that described by Broekkamp at al. (Eur. J. Pharmacol., 126, 223-229, 1986). Mice exposed to novel object (marbles) will bury them in the sawdust floor covering. Anxiolytics decrease the number of marbles buried at non-sedative doses.
Mice were individually placed in transparent plastic cages (33×21×18 cm) with 5 cm of sawdust on the floor and 25 marbles grouped in the centre of the cage. The cage was covered with an inverted plastic cage. Each test cage, together with the marbles, was impregnated with mouse odor before-hand by leaving 10 mice in the cage for 15 minutes. These mice then played no further role in the experiment. The number of marbles covered by sawdust (⅔ or more) was counted at the end of a 30 minute test. 12 mice were studied per group. The test was performed blind (apart from positive control). The compound of Example 85 was evaluated at 2 doses (100 and 300 mg/kg), administered p.o. 30 minutes before the test, and compared with vehicle control groups. Clobazam (8 mg/kg i.p.), administered 30 minutes before the test, was used as reference substance and was compared with the vehicle control group. Data were analyzed by comparing treated groups with control group using unpaired Student's t tests.

Each structure is given as a SMILES string.

T1 sequence (Q14833 33-912): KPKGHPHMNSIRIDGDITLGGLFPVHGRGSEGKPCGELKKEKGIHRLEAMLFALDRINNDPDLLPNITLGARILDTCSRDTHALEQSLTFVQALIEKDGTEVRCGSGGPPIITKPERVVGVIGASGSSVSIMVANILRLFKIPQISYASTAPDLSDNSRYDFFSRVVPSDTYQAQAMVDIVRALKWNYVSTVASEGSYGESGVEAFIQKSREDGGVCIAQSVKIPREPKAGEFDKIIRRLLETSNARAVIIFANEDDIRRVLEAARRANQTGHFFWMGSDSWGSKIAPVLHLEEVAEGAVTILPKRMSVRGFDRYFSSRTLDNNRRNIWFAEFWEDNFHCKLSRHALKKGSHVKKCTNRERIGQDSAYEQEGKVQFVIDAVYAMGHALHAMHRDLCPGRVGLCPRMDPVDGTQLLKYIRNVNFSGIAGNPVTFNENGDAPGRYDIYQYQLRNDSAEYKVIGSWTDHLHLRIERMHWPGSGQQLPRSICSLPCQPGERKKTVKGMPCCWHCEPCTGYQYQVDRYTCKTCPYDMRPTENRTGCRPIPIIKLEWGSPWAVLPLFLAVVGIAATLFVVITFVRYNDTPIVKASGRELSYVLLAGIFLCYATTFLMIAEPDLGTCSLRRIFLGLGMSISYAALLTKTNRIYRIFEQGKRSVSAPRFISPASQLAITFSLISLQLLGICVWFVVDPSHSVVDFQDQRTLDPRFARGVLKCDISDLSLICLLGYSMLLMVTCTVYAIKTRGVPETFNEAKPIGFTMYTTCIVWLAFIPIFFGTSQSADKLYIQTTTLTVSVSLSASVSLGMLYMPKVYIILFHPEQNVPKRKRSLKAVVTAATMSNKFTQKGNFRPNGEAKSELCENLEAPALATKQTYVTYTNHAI

Consider `ON=c1cc(-c2cc3cccn3cn2)oc2ccccc12` [Example 63, 2-Pyrrolo[1,2-c]pyrimidin-3-yl-chromen-4-one oxime], for which, in data set [1], the EC50 is < 1 µM. Moreover, in the data set on mice [2], the “anticataleptic activity (mean time of latency spent on the bar)” value was “significant anticataleptic activity”.
Take `Cl.ON=c1cc(-c2cc3cccn3cn2)oc2ccc(OCCN3CCOCC3)cc12` [Example 85, 6-(3-Morpholin-4-yl-ethoxy)-2-pyrrolo[1,2-c]pyrimidin-3-yl-chromen-4-one oxime hydrochloride]: the EC50 in data set [1] is < 1 µM. Besides, the “decrease of the number of marbles covered by sawdust, as compared with vehicle controls” value in the data set on mice [3] (100 mg/kg p.o. 30 minutes before the test) is recorded as −70%; in the data set on mice [3] (300 mg/kg p.o. 30 minutes before the test), −83%.
Consider `ON=c1cc(-c2cc3cccn3cn2)oc2ccc(OCCc3ccc(Cl)cc3)cc12` [Example 140, 6-[2-(4-Chloro-phenyl)-ethoxy]-2-pyrrolo[1,2-c]pyrimidin-3-yl-chromen-4-one oxime], for which the melting point is 247 to 249 °C. In data set [1], the EC50 was < 1 µM.
Take `ON=c1cc(-c2cc3ccccc3cn2)oc2cc(C#Cc3cccc(O)c3)ccc12` (mixture of isomers) [Example 30, 7-(3-hydroxyphenyl)ethynyl-2-isoquinolin-3-yl-chromen-4-one oxime]: the melting point fell in the range of 255 to 259 °C. Besides, the EC50 in data set [1] is < 5 µM.
Consider `Cl.OC[C@@H]1CCCN1CCOc1ccc2oc(-c3cc4cccn4cn3)cc(=NO)c2c1` [Example 95, 6-[2-((S)-2-hydroxymethylpyrrolidin-1-yl)-ethoxy]-2-pyrrolo[1,2-c]pyrimidin-3-yl-chromen-4-one oxime, hydrochloride], for which the melting point is > 220 °C (dec.). In addition, the EC50 in data set [1] was < 5 µM.
As to `Cl.ON=c1cc(-c2cc3cccn3cn2)oc2ccc(OCCN3CCCOCC3)cc12` [Example 117, 6-(2-[1,4]oxazepan-4-yl-ethoxy)-2-pyrrolo[1,2-c]pyrimidin-3-yl-chromen-4-one oxime, hydrochloride], the melting point is 240 °C (dec.). The EC50 in data set [1] is < 1 µM.
For `Cl.ON=c1cc(-c2cc3cccn3cn2)oc2ccc(OCCN3CCC(F)(F)C3)cc12` [Example 119, 6-[2-(3,3-difluoro-pyrrolidin-1-yl)-ethoxy]-2-pyrrolo[1,2-c]pyrimidin-3-yl-chromen-4-one oxime, hydrochloride], the melting point is > 230 °C (dec.). For the same compound, in data set [1], the EC50 was < 1 µM.
Take `COC1CCCN(CCOc2ccc3oc(-c4cc5cccn5cn4)cc(=NO)c3c2)C1.Cl` (stereo not drawn) [Example 108, 6-[2-(3-methoxy-piperidin-1-yl)-ethoxy]-2-pyrrolo[1,2-c]pyrimidin-3-yl-chromen-4-one oxime, hydrochloride]: the melting point lay within 178 to 184 °C. Besides, the EC50 in data set [1] was < 1 µM.
Taken in the same sequence, the figures for `ON=c1cc(-c2cc3cccn3cn2)oc2ccc(OCCCOc3cccnc3)cc12` [Example 149, 6-[3-(Pyridin-3-yloxy)-propoxy]-2-pyrrolo[1,2-c]pyrimidin-3-yl-chromen-4-one oxime] were 202 to 205 °C and < 1 µM.
Consider `CCc1ccc2oc(-c3cc4ccccc4cn3)cc(=NO)c2c1` [Example 37, 6-ethyl-2-isoquinolin-3-yl-chromen-4-one oxime], for which the melting point was in the range of 210 to 212 °C. For the same compound, the EC50 in data set [1] was < 1 µM.
On the same counts, the results for `ON=c1cc(-c2cc3ccccc3cn2)oc2ccc(C(F)(F)F)cc12` (mixture of isomers) [Example 11, 2-isoquinolin-3-yl-6-trifluoromethyl-chromen-4-one oxime] are 245 to 247 °C and < 5 µM.
Compound `Cc1ccc2oc(-c3cc4ccccc4cn3)cc(=NO)c2c1` (mixture of isomers) [Example 5, 2-isoquinolin-3-yl-6-methyl-chromen-4-one oxime] returned a melting point of 260 to 264 °C. Besides, the EC50 in data set [1] is < 1 µM.
For the compound `Cl.ON=c1cc(-c2cc3cccn3cn2)oc2ccc(OCCc3ccncc3)cc12` [Example 136, 6-(2-Pyridin-4-yl-ethoxy)-2-pyrrolo[1,2-c]pyrimidin-3-yl-chromen-4-one oxime, hydrochloride], the melting point was > 270 °C (dec.). For the same compound, the EC50 in data set [1] was < 5 µM.
Turning to `ON=c1cc(-c2ccc3ccccc3n2)oc2ccccc12` [Example 79, 2-Quinolin-2-yl-chromen-4-one oxime], the melting point fell in the range of 232 to 235 °C. Moreover, the “PAM activity on mGluR4” value in data set [1] (up to 100 μM) was “no PAM activity”.
In turn, `Cl.O=C(NCCN1CCOCC1)c1ccc2oc(-c3cc4cccn4cn3)cc(=NO)c2c1` [Example 115, 4-(hydroxyimino)-2-pyrrolo[1,2-c]pyrimidin-3-yl-4H-chromene-6-carboxylic acid (2-morpholin-4-yl-ethyl)-amide, hydrochloride] yielded a melting point of 230 to 235 °C. For the same compound, in data set [1], the EC50 is < 1 µM.
On the same counts, the results for `Cl.ON=c1cc(-c2cc3cccn3cn2)oc2ccc(OCCN3CCCC3)cc12` [Example 87, 6-(2-Pyrrolidin-1-yl-ethoxy)-2-pyrrolo[1,2-c]pyrimidin-3-yl-chromen-4-one oxime, hydrochloride] are > 260 °C (dec.) and < 5 µM.

By melting point is commonly meant the temperature, or range, at which the solid turns liquid.

Source of the values: patent publication US8962627B2, “Oxime derivatives and their use as allosteric modulators of metabotropic glutamate receptors” (Prestwick Chemical, Inc., priority 2009, dated 2015).
